Source: PMC3992131 (Nature chemical biology, 2014)
Where two headings read alike, the source gives them in different places. Where a SMILES comes first, the peptide text is derived from it. Bridges are numbered along the chain shown (N, C = ends). Where no end group is shown, it is not given here.

Columns and labels:
[1] = system: FhuA; conditions: cited from earlier work
[2] = target: T1, E. coli FhuA (Escherichia coli, UniProt P06971); assay: biochemical; type: binding, Escherichia coli MG1655
T1 sequence (P06971 34-747): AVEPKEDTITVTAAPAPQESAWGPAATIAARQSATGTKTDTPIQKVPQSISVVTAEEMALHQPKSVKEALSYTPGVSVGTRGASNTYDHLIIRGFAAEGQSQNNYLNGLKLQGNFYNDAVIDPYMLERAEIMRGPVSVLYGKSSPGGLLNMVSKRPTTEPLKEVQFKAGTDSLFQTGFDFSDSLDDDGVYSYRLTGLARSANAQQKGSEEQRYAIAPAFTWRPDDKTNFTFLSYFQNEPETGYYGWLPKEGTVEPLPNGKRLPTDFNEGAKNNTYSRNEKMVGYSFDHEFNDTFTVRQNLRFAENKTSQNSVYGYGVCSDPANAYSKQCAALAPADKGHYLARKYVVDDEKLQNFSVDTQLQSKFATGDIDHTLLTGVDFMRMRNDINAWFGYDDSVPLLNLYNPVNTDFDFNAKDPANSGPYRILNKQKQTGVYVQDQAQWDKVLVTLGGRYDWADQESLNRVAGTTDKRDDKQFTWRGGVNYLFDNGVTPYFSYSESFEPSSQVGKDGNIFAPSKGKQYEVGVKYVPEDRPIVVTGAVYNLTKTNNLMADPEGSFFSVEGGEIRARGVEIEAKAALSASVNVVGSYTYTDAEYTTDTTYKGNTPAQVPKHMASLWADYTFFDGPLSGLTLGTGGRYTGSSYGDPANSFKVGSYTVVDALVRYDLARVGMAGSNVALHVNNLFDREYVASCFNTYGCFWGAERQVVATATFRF

[3] = system: human erythrocytes; conditions: cited from earlier work
[4] = system: E. coli W3110 wildtype and tonB− strains; assay: tonB antibacterial assay; type: cell-based; conditions: spot-on-lawn, 10 μL MccJ25 in MeOH (1-100 μg/mL), LB agar, 37°C overnight
[5] = system: E. coli RNA polymerase; conditions: in vitro; cited from earlier work
[6] = system: Escherichia and Salmonella species; conditions: cited from earlier work
[7] = system: Salmonella; conditions: mouse model of infection by Salmonella; cited from earlier work
[8] = complex fluid matrices; cited from earlier work
[9] = target: FhuA (Escherichia coli) (UniProt P06971); assay: ITC; conditions: cited from earlier work
[10] = target: FhuA from E. coli MG1655 with an internal His-tag (E. coli) (UniProt P06971); assay: native MS

CO[C@H]1/C=C/O[C@@]2(C)Oc3c(C)c(O)c4c(c3C2=O)C(=O)C(N2CCOCC2)=C(NC(=O)/C(C)=C\C=C\[C@H](C)[C@H](O)[C@@H](C)[C@@H](O)[C@@H](C)[C@H](OC(=O)CC(=O)OCC2CCCN(C)C2)[C@@H]1C)C4=O (stereo partly shown) [CGP 4832]
transport by FhuA [1]: can transport

CC[C@H](C)[C@H](NC(=O)CNC(=O)[C@@H](NC(=O)[C@H](Cc1ccccc1)NC(=O)[C@H](Cc1ccc(O)cc1)NC(=O)[C@@H]1CCC(=O)NCC(=O)NCC(=O)N[C@@H](C)C(=O)NCC(=O)N[C@@H](Cc2cnc[nH]2)C(=O)N[C@@H](C(C)C)C(=O)N2CCC[C@H]2C(=O)N1)C(C)C)C(=O)NCC(=O)N[C@H](C(=O)N1CCC[C@H]1C(=O)N[C@H](C(=O)N[C@@H](CO)C(=O)N[C@@H](Cc1ccccc1)C(=O)N[C@@H](Cc1ccc(O)cc1)C(=O)NCC(=O)O)[C@@H](C)CC)[C@@H](C)O [MccJ25, microcin J25] (GGAGHVPEYFVGIGTPISFYG-OH; lactam N-8)
Kd [2]: 980 ± 20 nM | haemolytic activity [3]: without haemolytic activity on human erythrocytes

CC[C@H](C)[C@H](NC(=O)CNC(=O)[C@@H](NC(=O)[C@H](Cc1ccccc1)NC(=O)[C@H](Cc1ccc(O)cc1)NC(=O)[C@@H]1CCC(=O)NCC(=O)NCC(=O)N[C@@H](C)C(=O)NCC(=O)N[C@@H](Cc2c[nH]cn2)C(=O)N[C@@H](C(C)C)C(=O)N2CCC[C@H]2C(=O)N1)C(C)C)C(=O)NCC(=O)N[C@H](C(=O)N1CCC[C@H]1C(=O)N[C@H](C(=O)N[C@@H](CO)C(=O)N[C@@H](Cc1ccccc1)C(=O)N[C@@H](Cc1ccc(O)cc1)C(=O)NCC(=O)O)[C@@H](C)CC)[C@@H](C)O [MccJ25, microcin J25] (GGAGHVPEYFVGIGTPISFYG-OH; lactam N-8; C-terminus assumed)
internalization dependence on TonB [4]: dependent on the FhuA-TonB system | inhibition of E. coli RNA polymerase [5]: inhibit E. coli RNA polymerase with equal efficiency in vitro | antibacterial activity/spectrum [6]: potent antibacterial activity exclusively against Escherichia and some Salmonella species | antibacterial activity/spectrum ([6]; through inhibition of RNA polymerase): potent, narrow spectrum antibacterial activity against Escherichia and Salmonella species | antibacterial activity in vivo [7]: in vivo in a mouse model of infection by Salmonella | antibacterial activity ex vivo [8]: has been demonstrated both ex vivo, in complex fluid matrices

CO[C@H]1/C=C/O[C@@]2(C)Oc3c(C)c(O)c4c(O)c(cc(O)c4c3C2=O)NC(=O)/C(C)=C\C=C\[C@H](C)[C@H](O)[C@@H](C)[C@@H](O)[C@@H](C)[C@H](OC(C)=O)[C@@H]1C [rifamycin]
transport by FhuA [1]: cannot efficiently transport

MccJ25 (from UniProt Q9X2V7)
Kd [9]: 1200 nM

MccJ25[His5Lys] (peptide)
Kd [10]: 16900 nM

t-MccJ25: MccJ25 hydrolyzed between Phe10 and Val11, obtained by incubation of MccJ25 in the presence of thermolysin (chain 1 GGAGHVPEYF; chain 2 VGIGTPISFYG; also: lactam at chain A 8 to a chain's N-terminus)
binding to FhuA (result in words) [2]: absence of binding to FhuA
